From patent US20260132132A1, “3A,4,5,6-TETRAHYDRO-1 H-PYRAZOLO[3,4-C]PYRIDIN-7(7AH)-ONE DERIVATIVES AS FACTOR XIIA INHIBITORS” (KALVISTA PHARMACEUTICALS LIMITED, priority 2022, published 2026)

Legend:
Assay type in all cases: biochemical
FXa = FXa (Homo sapiens, UniProt P00742); experiment: Related protease inhibition: FXa, fluorogenic substrate; details: fluorogenic substrate at Km, 25° C., H1-H3 = % activity at 40 μM; for activity at 40 µM: read-out: IC50 (human FXa) nM
Method: (§1) Human serine protease enzyme Plasma Kallikrein, KLK1, FXa, Plasmin, Thrombin and Trypsin were assayed for enzymatic activity using an appropriate fluorogenic substrate at Km concentration, FXIa at fixed substrate concentration of 100 μM and various concentrations of the test compound.

Thrombin = Thrombin (Homo sapiens, UniProt P00734); experiment: Related protease inhibition: Thrombin, fluorogenic substrate; details: fluorogenic substrate at Km, 25° C., H1-H3 = % activity at 40 μM; for activity at 40 µM: read-out: IC50 (human thrombin) nM
Method: as §1

[1] = target: T1, Human Factor XIIa (hFXIIa) (Homo sapiens, UniProt P00748); experiment: Determination of Human Factor XIIa (hFXIIa) inhibition, fluorogenic substrate IC50 assay; details: fluorogenic substrate H-DPro-Phe-Arg-AFC at Km, 25° C., read-out: Human FXIIa IC50
T1 construct: purchased Enzyme Research Laboratories
T1 sequence (P00748 373-615 limits assumed): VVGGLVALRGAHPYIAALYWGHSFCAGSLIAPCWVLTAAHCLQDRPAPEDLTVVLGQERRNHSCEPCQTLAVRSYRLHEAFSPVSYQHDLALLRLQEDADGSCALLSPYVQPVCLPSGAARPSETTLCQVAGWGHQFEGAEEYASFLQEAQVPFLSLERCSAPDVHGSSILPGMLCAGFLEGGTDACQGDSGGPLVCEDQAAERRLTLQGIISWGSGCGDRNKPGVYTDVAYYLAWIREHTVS
T1 sequence (P00748 20-372 partner limits assumed): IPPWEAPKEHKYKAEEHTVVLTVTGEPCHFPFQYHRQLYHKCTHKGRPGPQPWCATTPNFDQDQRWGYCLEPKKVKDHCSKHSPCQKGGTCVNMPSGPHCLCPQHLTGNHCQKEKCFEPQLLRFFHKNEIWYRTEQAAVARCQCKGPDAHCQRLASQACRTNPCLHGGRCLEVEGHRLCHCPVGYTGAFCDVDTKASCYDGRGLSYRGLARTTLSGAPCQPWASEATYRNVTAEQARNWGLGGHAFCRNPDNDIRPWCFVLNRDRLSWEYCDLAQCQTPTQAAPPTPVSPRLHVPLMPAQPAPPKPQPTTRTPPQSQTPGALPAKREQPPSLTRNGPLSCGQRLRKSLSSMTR
Method: Determination of Human Factor XIIa (hFXIIa) inhibition
The Km for the cleavage of the substrate by hFXIIa was determined by standard transformation of the Michaelis-Menten equation, with subsequent inhibition assays performed at substrate Km concentration.

Sequence of FXa (P00742 235-488 limits assumed): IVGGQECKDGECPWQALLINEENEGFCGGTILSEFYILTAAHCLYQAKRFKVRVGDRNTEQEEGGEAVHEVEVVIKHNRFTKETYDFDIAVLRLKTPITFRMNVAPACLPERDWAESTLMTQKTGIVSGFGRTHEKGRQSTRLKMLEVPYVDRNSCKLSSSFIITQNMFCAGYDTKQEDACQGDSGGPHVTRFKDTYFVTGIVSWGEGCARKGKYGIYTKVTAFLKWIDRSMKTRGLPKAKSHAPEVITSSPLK
Sequence of FXa (P00742 41-179 partner limits assumed): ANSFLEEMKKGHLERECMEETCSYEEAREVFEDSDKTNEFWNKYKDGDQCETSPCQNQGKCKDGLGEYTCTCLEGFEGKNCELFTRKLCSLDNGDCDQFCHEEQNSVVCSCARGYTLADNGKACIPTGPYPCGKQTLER

CCNC(=O)c1nn(-c2cccc(Cl)c2)c2c1CCN(c1cccc(N3C(=O)C[C@@H]4C[C@@H]43)c1)C2=O (single isomer, unassigned) [Example 1408, 1-(3-Chlorophenyl)-N-ethyl-7-oxo-6-(3-((1S*,5S*)-3-oxo-2-azabicyclo[3.1.0]hexan-2-yl)phenyl)-4,5,6,7-tetrahydro-1H-pyrazolo[3,4-c]pyridine-3-carboxamide]
IC50 (FXa): 10 to 40 µM
activity at 40 µM (Thrombin): 20 to 80%
IC50 [1]: 0.3 to 1 µM

CN1CCc2ccc(N3CCc4c(C(=O)NCC5CCOCC5)nn(-c5cccc(Cl)c5)c4C3=O)cc2C1 [Example 1027, 1-(3-chlorophenyl)-6-(2-methyl-1,2,3,4-tetrahydroisoquinolin-7-yl)-7-oxo-N-((tetrahydro-2H-pyran-4-yl)methyl)-4,5,6,7-tetrahydro-1H-pyrazolo[3,4-c]pyridine-3-carboxamide]
IC50 (FXa): 3 to 10 µM
IC50 (Thrombin): > 100 µM
IC50 [1]: 0.3 to 1 µM

CC(C)N1CCc2ccc(N3CCc4c(C(=O)NCC5CC5)nn(-c5cccc(Cl)c5)c4C3=O)cc2C1 [Example 1035, 1-(3-chlorophenyl)-N-(cyclopropylmethyl)-6-(2-isopropyl-1,2,3,4-tetrahydroisoquinolin-7-yl)-7-oxo-4,5,6,7-tetrahydro-1H-pyrazolo[3,4-c]pyridine-3-carboxamide]
IC50 (FXa): 10 to 40 µM
IC50 (Thrombin): > 100 µM
IC50 [1]: 0.1 to 0.3 µM

COCCN1CCc2ccc(N3CCc4c(C(=O)NCC5CC5)nn(-c5cccc(Cl)c5)c4C3=O)cc2C1 [Example 1037, 1-(3-chlorophenyl)-N-(cyclopropylmethyl)-6-(2-(2-methoxyethyl)-1,2,3,4-tetrahydroisoquinolin-7-yl)-7-oxo-4,5,6,7-tetrahydro-1H-pyrazolo[3,4-c]pyridine-3-carboxamide]
IC50 (FXa): > 100 µM
IC50 (Thrombin): > 100 µM
IC50 [1]: 0.01 to 0.1 µM

CN1CCc2ccc(N3CCc4c(C(=O)NC5CCCC5)nn(-c5cccc(Cl)c5)c4C3=O)cc2C1 [Example 1044, 1-(3-chlorophenyl)-N-cyclopentyl-6-(2-methyl-1,2,3,4-tetrahydroisoquinolin-7-yl)-7-oxo-4,5,6,7-tetrahydro-1H-pyrazolo[3,4-c]pyridine-3-carboxamide]
IC50 (FXa): 3 to 10 µM
IC50 (Thrombin): > 100 µM
IC50 [1]: 0.1 to 0.3 µM

Cc1cc(CNC(=O)c2nn(-c3cccc(Cl)c3)c3c2CCN(c2ccc4c(c2)C(=O)N(CC(F)(F)F)CCO4)C3=O)n[nH]1 [Example 1378, 1-(3-chlorophenyl)-N-((5-methyl-1H-pyrazol-3-yl)methyl)-7-oxo-6-(5-oxo-4-(2,2,2-trifluoroethyl)-2,3,4,5-tetrahydrobenzo[f][1,4]oxazepin-7-yl)-4,5,6,7-tetrahydro-1H-pyrazolo[3,4-c]pyridine-3-carboxamide]
IC50 (FXa): 10 to 40 µM
IC50 (Thrombin): 10 to 40 µM
IC50 [1]: 0.01 to 0.1 µM

CN1CCc2ccc(N3CCc4c(C(=O)N[C@H](CO)C5CC5)nn(-c5cccc(Cl)c5)c4C3=O)cc2C1=O [Example 1406, (S)-1-(3-chlorophenyl)-N-(1-cyclopropyl-2-hydroxyethyl)-6-(2-methyl-1-oxo-1,2,3,4-tetrahydroisoquinolin-7-yl)-7-oxo-4,5,6,7-tetrahydro-1H-pyrazolo[3,4-c]pyridine-3-carboxamide]
activity at 40 µM (FXa): > 80%
activity at 40 µM (Thrombin): 20 to 80%
IC50 [1]: 0.1 to 0.3 µM

CCNC(=O)c1nn(-c2cccc(Cl)c2)c2c1CCN(c1cccc(N3CCN(C(C)C)C3=O)c1)C2=O [Example 1409, 1-(3-chlorophenyl)-N-ethyl-6-(3-(3-isopropyl-2-oxoimidazolidin-1-yl)phenyl)-7-oxo-4,5,6,7-tetrahydro-1H-pyrazolo[3,4-c]pyridine-3-carboxamide]
activity at 40 µM (FXa): > 80%
activity at 40 µM (Thrombin): > 80%
IC50 [1]: 3 to 10 µM

Cc1ccncc1CNC(=O)c1nn(-c2cccc(Cl)c2)c2c(=O)n(-c3ccc4c(c3)C(=O)N(CCO)CC4)c(C)nc12 [Example 3017, 1-(3-chlorophenyl)-6-(2-(2-hydroxyethyl)-1-oxo-1,2,3,4-tetrahydroisoquinolin-7-yl)-5-methyl-N-((4-methylpyridin-3-yl)methyl)-7-oxo-6,7-dihydro-1H-pyrazolo[4,3-d]pyrimidine-3-carboxamide]
IC50 (FXa): 10 to 40 µM
IC50 [1]: 0.01 to 0.1 µM

Cc1nc2c(C(=O)O)nn(-c3cccc(Cl)c3)c2c(=O)n1-c1ccc2c(c1)C(=O)N(CCO)CC2 [Example 3018, 1-(3-chlorophenyl)-6-(2-(2-hydroxyethyl)-1-oxo-1,2,3,4-tetrahydroisoquinolin-7-yl)-5-methyl-7-oxo-6,7-dihydro-1H-pyrazolo[4,3-d]pyrimidine-3-carboxylic acid]
IC50 (FXa): 10 to 40 µM
IC50 [1]: 1 to 3 µM

CCOC(=O)c1nn(-c2cccc(Cl)c2)c2c(=O)n(-c3ccc4c(c3)C(=O)N(CCO)CC4)c(C)nc12 [Example 3019, ethyl 1-(3-chlorophenyl)-6-(2-(2-hydroxyethyl)-1-oxo-1,2,3,4-tetrahydroisoquinolin-7-yl)-5-methyl-7-oxo-6,7-dihydro-1H-pyrazolo[4,3-d]pyrimidine-3-carboxylate]
IC50 (FXa): 3 to 10 µM
IC50 [1]: 0.1 to 0.3 µM

Cc1cc(CNC(=O)c2nn(-c3cccc(Cl)c3)c3c(=O)n(-c4ccc5c(c4)C(=O)N(C)CC5)c(C)nc23)n[nH]1 [Example 3020, 1-(3-chlorophenyl)-5-methyl-6-(2-methyl-1-oxo-1,2,3,4-tetrahydroisoquinolin-7-yl)-N-((5-methyl-1H-pyrazol-3-yl)methyl)-7-oxo-6,7-dihydro-1H-pyrazolo[4,3-d]pyrimidine-3-carboxamide]
IC50 (FXa): 10 to 40 µM
IC50 [1]: 0.1 to 0.3 µM

Cc1cc(CNC(=O)c2nn(-c3cccc(Cl)c3)c3c(=O)n(-c4ccc5c(c4)C(=O)N(C)CC5)c(C)nc23)nn1C [Example 3021, 1-(3-chlorophenyl)-N-((1,5-dimethyl-1H-pyrazol-3-yl)methyl)-5-methyl-6-(2-methyl-1-oxo-1,2,3,4-tetrahydroisoquinolin-7-yl)-7-oxo-6,7-dihydro-1H-pyrazolo[4,3-d]pyrimidine-3-carboxamide]
IC50 (FXa): 10 to 40 µM
IC50 [1]: 0.1 to 0.3 µM

CCNC(=O)c1nn(-c2cccc(Cl)c2)c2c(=O)n(-c3ccc4c(c3)C(=O)N(C)CC4)c(C)nc12 [Example 3022, 1-(3-chlorophenyl)-N-ethyl-5-methyl-6-(2-methyl-1-oxo-1,2,3,4-tetrahydroisoquinolin-7-yl)-7-oxo-6,7-dihydro-1H-pyrazolo[4,3-d]pyrimidine-3-carboxamide]
IC50 (FXa): 10 to 40 µM
IC50 [1]: 0.3 to 1 µM

Cc1cc(CNC(=O)c2nn(-c3cccc(Cl)c3)c3c2CN(c2ccc4c(c2)CN(CCO)CC4)C3=O)nn1C [Example 4001, 1-(3-Chlorophenyl)-N-[(1,5-dimethylpyrazol-3-yl)methyl]-5-[2-(2-hydroxyethyl)-3,4-dihydro-1H-isoquinolin-7-yl]-6-oxo-4H-pyrrolo[3,4-c]pyrazole-3-carboxamide]
IC50 (FXa): > 40 µM
IC50 [1]: 3 to 10 µM

O=C(Cn1nc(-c2cccc(Cl)c2)c2c1CCN(c1ccc3c(c1)CN(CCO)CC3)C2=O)NCC1CC1 [Example 4002, 2-[3-(3-Chlorophenyl)-5-[2-(2-hydroxyethyl)-3,4-dihydro-1H-isoquinolin-7-yl]-4-oxo-6,7-dihydropyrazolo[4,3-c]pyridin-1-yl]-N-(cyclopropylmethyl) acetamide]
IC50 (FXa): > 40 µM
IC50 [1]: 1 to 3 µM
